Assay results reported in patent publication US10815276B2, “Cell penetrating peptides and methods of making and using thereof” (Entrada Therapeutics, Inc., priority 2014, dated 2020).
Each block holds one molecule with its values, some of them ahead of it. Starred links: 1 amine or outer side, 2 acyl side, 3 side chain; linkers in the order of their positions; H or OH if unused. Positions of bridges follow the written chain, without caps; N, C: chain ends. Non-standard residues stand in square brackets, D forms with d. Residues, ends and D or L forms follow the SMILES beside them. Trimesoyl = O=C(c1cc(C(=O)[*:2])cc(C(=O)[*:3])c1)[*:1]; Phe(4-F) = N[C@@H](Cc1ccc(F)cc1)C(=O)O; 2Nal = N[C@@H](Cc1ccc2ccccc2c1)C(=O)O; NMeF = CN[C@@H](Cc1ccccc1)C(=O)O; Pip = O=C(O)[C@@H]1CCCCN1; Dap = NC[C@H](N)C(=O)O; Sar = CNCC(=O)O

Tests used:
Jurkat cells = test: In cellulo fluorimetric caspase assay; assay type: cell-based; conditions: staurosporin-treated cells, 5 μM peptide, 10-h period
Procedure: 100 μL of Jurkat cell suspension (5×10^5 cells/mL) was seeded in 96-well plate one hour prior to the experiment. Ten μL of staurosporine stock solution (10 μM) was added into half of the wells to induce apoptosis, while 10 μL of media was added to the other wells. After 1 h incubation, caspase-3 fluorogenic substrates were added to the cells to a final concentration of 5 μM. The fluorescence of the released coumarin was measured on the Spectramax M5 plate reader with excitation and emission wavelengths at 360 and 440 nm at various times points (0-6 h). The fluorescence unit (FU) increases between induced and uninduced cells were plotted against the time to present caspase-3 activities measured using various fluorogenic substrates in living cell in real-time. Three independent sets of experiments, each performed in triplicate, were conducted.
Jurkat cells were pretreated with the kinase inhibitor staurosporin to induce caspase activities and thus apoptosis (Belmokhtar, C A et al. Biochem. J. 1996, 315, 21). These cells were then incubated with peptides 3-7 and the amount of Amc released was monitored at various time points (0-10 h). […] Peptide 4 produced the fastest fluorescence increase, reaching 459 fluorescence units (FU), followed by peptides 7 and 6. […] This slow rate of AMC release can be attributed to hydrolysis by other intracellular proteases and peptidases. Consistent with this interpretation, pretreatment of Jurkat cells with a pancaspase inhibitor Z-VAD(OMe)-FMK (Slee, E A et al. Biochem J. 1996, 315, 21) followed by incubation with peptide 4 released AMC at a rate that was similar to that of peptide 5 alone. One explanation of the above observations is that both peptides 4 and 5 can enter the cell interior efficiently, but only peptide 4 can be converted into the linear caspase substrate inside the cells.

PTP1B = molecular target: T1, PTP1B (Homo sapiens, UniProt P18031); test: PTP inhibition assay (pNPP); assay type: biochemical; conditions: pNPP 0-24 mM; read-out: K1 (competitive inhibition constant)
T1 construct: The gene coding for the catalytic domain of PTP1B (amino acids 1-321) was amplified; made in house; host or cells: prokaryotic vector pET-22b(+)-ybbR
T1 sequence (P18031 1-321): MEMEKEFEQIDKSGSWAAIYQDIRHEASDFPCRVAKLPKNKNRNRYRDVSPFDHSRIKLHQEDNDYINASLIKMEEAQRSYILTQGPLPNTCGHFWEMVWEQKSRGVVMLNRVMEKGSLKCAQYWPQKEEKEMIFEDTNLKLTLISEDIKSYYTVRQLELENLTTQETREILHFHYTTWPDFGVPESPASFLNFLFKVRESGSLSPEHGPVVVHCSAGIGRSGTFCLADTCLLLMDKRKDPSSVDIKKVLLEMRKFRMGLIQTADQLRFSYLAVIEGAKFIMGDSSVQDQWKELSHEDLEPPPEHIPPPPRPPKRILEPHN
Procedure: PTP assays were performed in a quartz microcuvette (total volume 150 μL). The reaction mixture contains 100 mM Tris-HCl, pH 7.4, 50 mM NaCl, 2 mM EDTA, 1 mM TCEP, 0-1 μM of PTP inhibitor, and 500 μM para-nitrophenyl phosphate (pNPP). The enzymatic reaction was initiated by the addition of PTP (final concentration 15-75 nM) and monitored continuously at 405 nm on a UV-VIS spectrophotometer. Initial rates were calculated from the reaction progress curves (typically <60 s). The half-maximal inhibition constant (IC50) was defined as the concentration of an inhibitor that reduced the enzyme activity to 50% and was obtained by plotting the rates (V) against the inhibitor concentration [I] and fitting the data against the equation
[formula] where V0 is the enzymatic reaction rate in the absence of inhibitor. […] The reaction rate (V) was plotted against the pNPP concentration ([S]) and fitted against the equation
[formula] to obtain the Michaelis constant K. The Ki value was obtained by plotting the K values against the inhibitor concentration [I] and fitted to equation
[formula] where K0 is the Michaelis constant in the absence of inhibitor ([I]=0).

Pin1 [1] = molecular target: T2, Pin1 (Homo sapiens, UniProt Q13526, S16A/Y23A); test: Fluorescence anisotropy binding to Pin1
T2 construct: The full-length human S16A/Y23A mutant Pin1 was expressed and purified from E. coli; made in house
T2 sequence (Q13526 whole entry S16A/Y23A): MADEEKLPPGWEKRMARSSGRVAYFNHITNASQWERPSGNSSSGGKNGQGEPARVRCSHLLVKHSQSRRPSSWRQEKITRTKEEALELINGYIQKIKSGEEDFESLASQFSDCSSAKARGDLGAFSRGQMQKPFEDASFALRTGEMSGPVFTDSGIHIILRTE
Procedure: The gene coding for the catalytic domain of PTP1B (amino acids 1-321) was amplified by the polymerase chain reaction using PTP1B cDNA as template and oligonucleotides 5′-[…]-3′ and 5′-[…]-3′ as primers. […] Expression and purification of the ybbR-tagged PTP1B were carried out as previously described (Ren, L et al. Biochemistry 2011, 50, 2339-2356). […] The reaction mixture was passed through a G-25 fast-desalting column equilibrated in 30 mM HEPES, pH 7.4, 150 mM NaCl to remove any free dye molecules. The full-length human S16A/Y23A mutant Pin1 was expressed and purified from E. coli as previously described (Liu, T et al. J. Med. Chem. 2010, 53, 2494-2501).
FA experiments were carried out by incubating 100 nM FITC-labeled peptide with varying concentrations of protein in 20 mM HEPES (pH 7.4), 150 mM NaCl, 2 mM magnesium acetate, and 0.1% bovine serum albumin (BSA) for 2 h at room temperature. The FA values were measured on a Molecular Devices Spectramax M5 plate reader, with excitation and emission wavelengths at 485 and 525 nm, respectively. Equilibrium dissociation constants (KD) were determined by plotting the FA values as a function of protein concentration and fitting the curve to the following equation:
[formula] where Y is the FA value at a given protein concentration x, L is the peptide concentration, Qb/Qf is the correction factor for fluorophore-protein interaction, Amax is the maximum FA value when all of the peptides are bound to protein, while Amin is the minimum FA value when all of the peptides are free. FA competition assay was performed by incubating 100 nM FITC-labeled Pin1 inhibitor 5 with 1 μM Pin1, followed by the addition of 0-5 μM unlabeled inhibitor. The FA values were measured similarly on a pate reader. IC50 values were obtained by plotting the FA values against the competitor concentration and curve fitting using the four-parameter dose-response inhibition equation (Prism 6, GraphPad).

Pin1 [2] = molecular target: T2, Pin1; test: Pin1 binding by FA (FITC-labeled peptides); conditions: FITC-labeled peptide, FA; read-out: KD
[3] = Serum stability test (25% human serum); assay type: in vitro ADME; conditions: 37° C.
Procedure: The stability tests were carried by modifying a previously reported procedure (Nguyen, L T et al. […] At various time points (0-6 h), 200-μL aliquots were withdrawn and mixed with 50 μl of 15% trichloroacetic acid and incubated at 4° C. overnight. The final mixture was centrifuged at 15,000 rpm for 10 min in a microcentrifuge, and the supernatant was analyzed by reversed-phase HPLC equipped with a C18 column (Waters). The amount of remaining peptide (%) was determined by integrating the area underneath the peptide peak (monitored at 214 nm) and compared with that of the control reaction (no serum).

HeLa cells = test: FACS uptake of FITC-labeled peptides; assay type: cell-based, human; conditions: 5 μM, 2 h

Molecule: C[C@@H]1NC(=O)[C@H](CCCNC(=N)N)NC(=O)[C@H](Cc2ccc3ccccc3c2)NC(=O)[C@@H]2CCCCN2C(=O)[C@@H](CC(=O)O)NC(=O)CN(C)C(=O)[C@@H]2CCCN2C(=O)c2cc3cc(c2)C(=O)NC[C@H](NC(=O)[C@@H](C)NC1=O)C(=O)N[C@@H](Cc1ccccc1)C(=O)N[C@@H](Cc1ccc2ccccc2c1)C(=O)N[C@@H](CCCNC(=N)N)C(=O)N[C@@H](CCCNC(=N)N)C(=O)N[C@@H](CCCNC(=N)N)C(=O)N[C@@H](CCCNC(=N)N)C(=O)N[C@H](C(=O)N[C@@H](CCCCN)C(N)=O)CNC3=O [Peptide 3, bicyclo[Tm-(Pro-Sar-D-Asp-Pip-Nal-Arg-Ala-D-Ala)-Dap-(Phe-Nal-Arg-Arg-Arg-Arg-Dap)]-Lys] (P[Sar][dD][Pip][2Nal]RA[dA][Dap]F[2Nal]RRRR[Dap]K-NH2; linker N-9-16 via Trimesoyl)
Fluorescence increase (released Amc) (Jurkat cells): little fluorescence increase

Molecule: C[C@@H]1NC(=O)[C@H](CCCNC(=N)N)NC(=O)[C@H](Cc2ccc3ccccc3c2)NC(=O)[C@@H]2CCCCN2C(=O)[C@@H]([C@H](C)O)NC(=O)CN(C)C(=O)[C@@H](C)NC(=O)c2cc3cc(c2)C(=O)NC[C@H](NC(=O)[C@@H](C)NC1=O)C(=O)N[C@@H](Cc1ccccc1)C(=O)N[C@@H](Cc1ccc2ccccc2c1)C(=O)N[C@@H](CCCNC(=N)N)C(=O)N[C@@H](CCCNC(=N)N)C(=O)N[C@@H](CCCNC(=N)N)C(=O)N[C@@H](CCCNC(=N)N)C(=O)N[C@H](C(=O)N[C@@H](CCCCN)C(N)=O)CNC3=O [Peptide 2, bicyclo[Tm-(D-Ala-Sar-D-Thr-Pip-Nal-Arg-Ala-D-Ala)-Dap-(Phe-Nal-Arg-Arg-Arg-Arg-Dap)]-Lys] ([dA][Sar][dT][Pip][2Nal]RA[dA][Dap]F[2Nal]RRRR[Dap]K-NH2; linker N-9-16 via Trimesoyl)
Ki (PTP1B): 54 nM | Reduction of potency vs inhibitor 7 (Pin1 [1]): ~10 fold | Kd (Pin1 [2]): 620 nM

Molecule: N=C(N)NCCC[C@H](NC(=O)[C@H](CCCNC(=N)N)NC(=O)[C@H](CCCNC(=N)N)NC(=O)[C@H](CCC(N)=O)NC(=O)[C@H](CCCNC(=N)N)NC(=O)[C@H](CCCNC(=N)N)NC(=O)[C@H](CCCCN)NC(=O)[C@H](CCCCN)NC(=O)[C@H](CCCNC(=N)N)NC(=O)CNC(=O)[C@@H](N)Cc1ccc(O)cc1)C(N)=O [Tat]
half-life [3]: ~30 min

half-life at 50 μM [3]: ~30 min
Molecule: N=C(N)NCCC[C@H](NC(=O)[C@H](CCCNC(=N)N)NC(=O)[C@H](CCCNC(=N)N)NC(=O)[C@H](CCCNC(=N)N)NC(=O)[C@H](CCCNC(=N)N)NC(=O)[C@H](CCCNC(=N)N)NC(=O)[C@H](CCCNC(=N)N)NC(=O)[C@H](CCCNC(=N)N)NC(=O)[C@@H](N)CCCNC(=N)N)C(N)=O [Peptide R9]

Molecule: fluorescein isothiocyanate [FITC, reference compound]
Mean fluorescence intensity (MFI), total intracellular FITC fluorescence (HeLa cells): 1200 arbitrary units (AU)

Molecule: C[C@@H]1NC(=O)[C@H](CCCNC(=N)N)NC(=O)[C@H](Cc2ccc3ccccc3c2)NC(=O)[C@@H]2CCCCN2C(=O)[C@@H]([C@H](C)O)NC(=O)[C@H](Cc2ccc(F)cc2)NC(=O)[C@@H](Cc2ccccc2)NC(=O)c2cc3cc(c2)C(=O)NC[C@H](NC(=O)[C@@H](C)NC1=O)C(=O)N[C@@H](Cc1ccccc1)C(=O)N[C@@H](Cc1ccc2ccccc2c1)C(=O)N[C@@H](CCCNC(=N)N)C(=O)N[C@@H](CCCNC(=N)N)C(=O)N[C@@H](CCCNC(=N)N)C(=O)N[C@@H](CCCNC(=N)N)C(=O)N[C@H](C(=O)N[C@@H](CCCCN)C(N)=O)CNC3=O [Peptide 4, bicyclo[Tm-(D-Phe-Fpa-D-Thr-Pip-Nal-Arg-Ala-D-Ala)-Dap-(Phe-Nal-Arg-Arg-Arg-Arg-Dap)]-Lys] ([dF][Phe(4-F)][dT][Pip][2Nal]RA[dA][Dap]F[2Nal]RRRR[Dap]K-NH2; linker N-9-16 via Trimesoyl; C-terminus assumed)
Fluorescence increase (released Amc) (Jurkat cells): 459 FU

Molecule: C[C@@H]1NC(=O)[C@H](CCCNC(=N)N)NC(=O)[C@H](Cc2ccc3ccccc3c2)NC(=O)[C@@H]2CCCCN2C(=O)[C@@H]([C@H](C)O)NC(=O)CNC(=O)[C@H](Cc2ccccc2)N(C)C(=O)c2cc3cc(c2)C(=O)NC[C@H](NC(=O)[C@@H](C)NC1=O)C(=O)N[C@@H](Cc1ccccc1)C(=O)N[C@@H](Cc1ccc2ccccc2c1)C(=O)N[C@@H](CCCNC(=N)N)C(=O)N[C@@H](CCCNC(=N)N)C(=O)N[C@@H](CCCNC(=N)N)C(=O)N[C@@H](CCCNC(=N)N)C(=O)N[C@H](C(=O)N[C@@H](CCCCN)C(N)=O)CNC3=O [Peptide 5, bicyclo[Tm-(Mpa-Gly-D-Thr-Pip-Nal-Arg-Ala-D-Ala)-Dap-(Phe-Nal-Arg-Arg-Arg-Arg-Dap)]-Lys] ([NMeF]G[dT][Pip][2Nal]RA[dA][Dap]F[2Nal]RRRR[Dap]K-NH2; linker N-9-16 via Trimesoyl; C-terminus assumed)
Fluorescence increase (released Amc) (Jurkat cells): 99 FU
